Test results: patent publication US20180045715A1, “STRUCTURE AND FUNCTION OF THE SALICYCLIC ACID BINDING SITES ON HUMAN HMGB1 AND METHODS OF USE THEREOF FOR THE RATIONAL DESIGN OF BOTH SALICYCLIC ACID DERIVATIVES AND OTHER AGENTS THAT ALTER ANIMAL AND PLANT HMGBS ACTIVITIES” (Boyce Thompson Institute for Plant Research, Inc., priority 2015, published 2018)

Tests used:
HMGB1 = target: T1, HMGB1 (Homo sapiens, UniProt P09429); test: Photoaffinity labeling of HMGB1 with 4AzSA, competition by SA; type: binding; conditions: 0.1 mM 4AzSA, increasing concentrations of SA
T1 construct: (i) full length: residues 2-215; 6x His (cleaved yes); made in house; host or cells: Escherichia coli BL21
T1 sequence (P09429 2-215): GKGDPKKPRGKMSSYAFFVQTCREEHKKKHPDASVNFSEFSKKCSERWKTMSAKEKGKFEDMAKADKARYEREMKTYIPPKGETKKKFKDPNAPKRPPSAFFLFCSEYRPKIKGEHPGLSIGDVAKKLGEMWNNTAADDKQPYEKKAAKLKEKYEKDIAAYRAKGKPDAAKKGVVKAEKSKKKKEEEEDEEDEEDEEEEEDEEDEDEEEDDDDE
Method: HMGB1's SA-binding activity was then assessed using photoaffinity-crosslinking. Recombinant HMGB1 was pre-incubated with or without photoreactive 4-azido SA (4AzSA) before exposure to UV irradiation (FIG. 1B).

AtHMGB3 = target: T2, AtHMGB3 (Arabidopsis thaliana, UniProt P93047); test: Photoaffinity labeling of AtHMGB3 with 4AzSA, competition by SA; conditions: 50 μM 4AzSA, increasing concentrations of SA
T2 sequence (P93047 1-141): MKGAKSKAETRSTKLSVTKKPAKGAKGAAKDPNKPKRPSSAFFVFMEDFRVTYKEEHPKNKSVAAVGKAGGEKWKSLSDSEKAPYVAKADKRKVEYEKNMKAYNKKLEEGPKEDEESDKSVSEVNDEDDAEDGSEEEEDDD

## O=C(O)c1ccccc1O [SA, salicylic acid]
HMGB1
  inhibition of crosslinking of 4AzSA to HMGB1: effectively inhibited crosslinking
AtHMGB3
  inhibition of crosslinking of 4AzSA to AtHMGB3: effectively inhibited
